Results reported in patent US20210324281A1, “FUEL DERIVED FROM RENEWABLE RESOURCES” (priority 2018, published 2021).
Each block holds one compound with its values, some of them ahead of it.

Key:
[1] = RapidOxy oxidative stability measurement (DIN EN 16091, 140° C., 700 kPa oxygen); type: physicochemical; conditions: for oxidative stability standard according to EN 14214: 500 ppm in Plantanol with 1 wt.-% solketal, FIG. 15; for oxidative stability of the single, pure component: standard: induction time above 33.3 min, FIG. 8
Method: In this method, the pressure of a closed, with oxygen filled and afterwards heated sample chamber is measured against time. […] Therefore, the samples are heated up to 140° C. with an oxygen pressure of 700 kPa. […] The incubation time is the period between the start of the experiment and until the pressure dropped by 10% compared to the maximum pressure in the sample chamber. In FIG. 8 etc., this limit is indicated by a dashed line.
For this purpose, the samples were heated up to 140° C. at 700 kPa in an oxygen atmosphere. Thereafter the device measured the pressure with respect to the time. The measurement automatically stopped once a decrease of the pressure of 10% occurred. The time needed for this decrease by 10% is called “induction time” and represents a characteristic quantity for the oxidative stability of a fuel. The quantity “ppm” (parts per million) in the present experimental examples refers to a molar ratio (n/n), if not stated otherwise.

Staphylococcus aureus = assay: Modified broth dilution in biphasic biofuel (Plantanol)/water system, turbidity at 600 nm; type: cell-based; conditions: for amount needed relative to ferulic acid to achieve the same effect: 10 wt.-% versus 0.25 wt.-% ferulic acid in Plantanol; for absorbance of the aqueous phase after incubation: medium pre-incubation 0.12, FIG. 20
Excerpt: (§1) The growth of microbes in the fuel is one of the main problems of biofuels, as set out above. The aim of the experiments was to investigate the bacterial growth in the biphasic biofuel/water system to see how the addition of an antimicrobial additive to the biofuel has an impact on the microbial growth in the aqueous bacteria solution. For this purpose, the so-called “broth dilution” method was modified and applied to the biphasic (biofuel+additive)/(water+bacteria) system.
(§2) This method represents a standard test for the investigation of bactericidal substances (e.g. antibiotics). At first, bacteria are incorporated in water that contains a nutrient medium (e.g. blood or yeast extracts). The potential antimicrobial agents are then added to the bacteria solution and the mixture is incubated over night at a certain temperature.
(§3) The concentration of bacteria can be measured by means of photometric spectroscopy as the presence of bacteria in a solution lead to turbidity. The higher the turbidity, the more bacteria are present in the solution. […] In some cases, the turbidity even decreases (=bacteria die).
(§4) The above-mentioned method was modified and applied to the biofuel/water system. For this purpose, there was one type of gram-negative (Escherichia coli) and gram-positive bacteria (Staphylococcus aureus) incorporated in each aqueous medium. The so-called “LB-medium” (lysogeny broth) was used as the nutrient medium. The biofuel (with and without additive) was then added to the bacteria solution leading to a phase separation of the biofuel (top) and aqueous medium (bottom).
(§5) The samples were incubated in a so-called incubator shaker, to ensure a good mixing of the two phases. Thereafter, the samples were taken out of the incubator and it was waited until complete phase separation occurred (˜30 minutes). Lastly, the aqueous phase was transferred and measured photometrically at a wavelength of A=600 nm.
(§6) Thus, the turbidity of the aqueous phase solely arises from the bacteria's presence in the water. Depending on the magnitude of the turbidity, it can be concluded whether and how the addition of a certain compound to the biofuel affects the bacterial growth in the aqueous medium.
(§7) For this purpose, different concentrations of antimicrobial substances were added to the biofuel and the effect of these substances on the turbidity of the samples was investigated. On the one hand, hydrophobic, biofuel-soluble bactericides were used (Eugenol, Carvacrol) and on the other hand hydrophilic, biofuel-insoluble substances (caffeic acid, gallic acid, ferulic acid) were used. The glycerol derivative solketal was used to make the hydrophilic substances soluble in the biofuel.
(§8) The chosen concentrations for Grotamar82 and Liqui Moly were the ones recommended by the manufacturer. For both products, there is a recommended concentration for prevention of diesel bug as well as a recommended “shock dosage” in case of an already existing microbial contamination. 1000 ppm of Grotamar82 as well 5000 ppm of the product by Liqui Moly are recommended as a “shock dosage” while 250 ppm and 1000 ppm are recommended to achieve an effective protection against diesel bug.
(§9) Additionally, formaldehyde was added to the Plantanol as the kinetics of the hydrolysis of MBO (cf. the above scheme) in Grotamar82 were not known. Grotamar82 contains about 20% of MBO, according to the manufacturer. Thus, a complete hydrolysis of the MBO in 250 ppm and 1000 ppm Grotamar82 would result in the production of 50 ppm and 200 ppm of formaldehyde respectively.

Escherichia coli = assay: as above; type: cell-based; conditions: for bacterial growth (turbidity of the aqueous phase) / effect on bacterial growth compared with Staphylococcus aureus: FIG. 19; for effect on bacterial growth compared with Staphylococcus aureus: in Plantanol with solketal; for microbial growth (turbidity of the aqueous phase): FIG. 21
Excerpt: as §1, §2, §3, §4, §5, §6, §7, §8, §9

[2] = Solubilisation of hydrophilic antioxidants in biofuel by glycerol derivatives; type: physicochemical
Method: As a proof of concept, analogous experiments were carried out with the biofuel “Plantanol” from industry. […] The samples were prepared by dissolving the respective antioxidants in solketal.

[3] = 330 ppm in 63/27/10 biodiesel (FAME)/rapeseed oil/solketal, FIG. 14
[4] = 333 ppm in 63/27/10 FAME/rapeseed oil/solketal, FIG. 16
[5] = 0.1-0.25 wt.-% in Plantanol, solubilised with solketal, FIG. 18

Structure (SMILES): CCCOC(=O)c1cc(O)c(O)c(O)c1 [propyl gallate]
oxidative stability of the biofuel ([1]; tributyrin system (60 wt.-% FAME, 30 wt.-% rapeseed oil, 10 wt.-% tributyrin), FIG. 12): the higher the concentration of the antioxidant, the better the stability toward oxidation is

Structure (SMILES): C=CCc1ccc(O)c(OC)c1 [Eugenol, reference compound]
bacterial growth (turbidity of the aqueous phase) (Staphylococcus aureus; 2 wt.-% in Plantanol, FIG. 18): no effect on the bacterial growth | bacterial growth (turbidity of the aqueous phase) (Staphylococcus aureus; 10 wt.-% in Plantanol, FIG. 18): completely inhibited the growth | amount needed relative to ferulic acid to achieve the same effect (Staphylococcus aureus): 40 times | bacterial growth (turbidity of the aqueous phase) (Escherichia coli; 10 wt.-% in Plantanol): distinctly reduced it

Structure (SMILES): OCCc1ccc(O)c(O)c1 [hydroxytyrosol]
oxidative stability of the biofuel (EN 14214) [1, 3]: enough to make the biofuel fulfil the standard | oxidative stability of the biofuel (EN 14214) [1, 4]: stabilization above the minimum of EN 14214

oxidative stability standard according to EN 14214 [1]: not reached
Structure (SMILES): CC(C)(C)c1cc(O)ccc1O [TBHQ, 2-tert-butyl hydroquinone, reference compound]

oxidative stability of the single, pure component [1]: insensitive toward oxidation
Structure (SMILES): CCCC(=O)OCC(COC(=O)CCC)OC(=O)CCC [Tributyrin, glycerol tributyrate]

Structure (SMILES): O=C(O)c1cc(O)c(O)c(O)c1 [gallic acid]
bacterial growth (turbidity of the aqueous phase) (Staphylococcus aureus; [5]): distinctly reduced | effect on bacterial growth compared with Staphylococcus aureus (Escherichia coli): smaller effect on the E.-coli bacteria than they had on the Staphylococcus aureus | oxidative stability of the biofuel (EN 14214) [1, 3]: enough to make the biofuel fulfil the standard | oxidative stability of the biofuel (EN 14214) [1, 4]: stabilization above the minimum of EN 14214 | induction time versus concentration, ranking ([1]; solketal system, higher concentrations, FIG. 11): most effective | amount of solketal sufficient to solubilize the additive ([2]; 500 ppm of additive in Plantanol): < 0.5 wt %

oxidative stability of the biofuel ([1]; 0.2 wt.-% in solketal system (60 wt.-% FAME, 30 wt.-% rapeseed oil, 10 wt.-% solketal), FIG. 9): distinctly increased | oxidative stability of the biofuel ([1]; 160 ppm in solketal system (60/30/10), FIG. 9): not enough to fulfill the standard | oxidative stability standard according to EN 14214 [1]: not reached
Structure (SMILES): Oc1ccc(O)cc1 [hydroquinone, reference compound]
oxidative stability of the biofuel (EN 14214) [1, 3]: enough to make the biofuel fulfil the standard

Structure (SMILES): O=c1c(O)c(-c2ccc(O)c(O)c2)oc2cc(O)cc(O)c12 [quercetin]
oxidative stability of the biofuel (EN 14214) [1, 3]: enough to make the biofuel fulfil the standard

Structure (SMILES): COc1cc(/C=C/C(=O)O)ccc1O [ferulic acid]
bacterial growth (turbidity of the aqueous phase) (Staphylococcus aureus; 0.1 wt % dissolved in solketal, in Plantanol, FIG. 20): drastically decreases | absorbance of the aqueous phase after incubation (Staphylococcus aureus; 0.25 wt % in solketal/Plantanol): below 0.12 | bacterial growth (turbidity of the aqueous phase) (Staphylococcus aureus; 0.25 wt.-% in Plantanol, FIG. 18): complete inhibition | absorbance of the aqueous phase after incubation (Staphylococcus aureus; 0.5 wt % in solketal/Plantanol): below 0.12 | microbial growth (turbidity of the aqueous phase) (Escherichia coli; 0.1 wt % in solketal, in Plantanol): significantly decreased microbial growth | microbial growth (turbidity of the aqueous phase) (Escherichia coli; 0.25 wt % in Plantanol): No growth of bacteria was observable | bacterial growth (turbidity of the aqueous phase) (Escherichia coli; 0.25 wt.-% in Plantanol): distinctly reduced it | microbial growth (turbidity of the aqueous phase) (Escherichia coli; 0.50 wt % in Plantanol): No growth of bacteria was observable

Structure (SMILES): Cc1ccc(C(C)C)cc1O [Carvacrol, reference compound]
bacterial growth (turbidity of the aqueous phase) (Staphylococcus aureus; 2 wt.-% in Plantanol, FIG. 18): no effect on the bacterial growth | bacterial growth (turbidity of the aqueous phase) (Staphylococcus aureus; 10 wt.-% in Plantanol, FIG. 18): completely inhibited the growth | amount needed relative to ferulic acid to achieve the same effect (Staphylococcus aureus): 40 times | bacterial growth (turbidity of the aqueous phase) (Escherichia coli; 10 wt.-% in Plantanol): distinctly reduced it

amount of solketal found preferable to solubilize the additive ([2]; 0.1 wt % of additive in Plantanol): up to 10 wt %
Structure (SMILES): O=C(O)/C=C/c1ccc(O)c(O)c1 [caffeic acid]
bacterial growth (turbidity of the aqueous phase) (Staphylococcus aureus; [5]): distinctly reduced | effect on bacterial growth compared with Staphylococcus aureus (Escherichia coli): smaller effect on the E.-coli bacteria than they had on the Staphylococcus aureus | oxidative stability of the biofuel (EN 14214) [1, 3]: enough to make the biofuel fulfil the standard

oxidative stability of the single, pure component [1]: oxidised nearly as fast as 2-methylfuran
Structure (SMILES): CC1(C)OCC(CO)O1 (stereo not shown) [solketal, isopropylideneglycerol]

effect of addition on oxidative stability ([1]; 167 ppm added to the system containing 333 ppm DHB, FIG. 16): no effect on the overall stability
Structure (SMILES): O=C1O[C@H]([C@@H](O)CO)C(O)=C1O [vitamin C, ascorbic acid]
effect of addition on oxidative stability ([1]; 167 ppm added to the system containing 333 ppm GA, FIG. 16): distinct increase of the oxidative stability | effect of addition on oxidative stability ([1]; 167 ppm added to the system containing 333 ppm HT, FIG. 16): distinct increase of the oxidative stability
